We go through four compounds from ChEMBL document CHEMBL3137667, “[Drug-induced liver injury; fourteenth updated edition of the bibliographic database of liver injuries and related drugs]” (Gastroenterol Clin Biol, 2004).

Data set [1] is described as follows: Highest frequency of moderate liver toxicity observed during clinical trials, expressed as a percentage. [column '% BIOL' in source]. The conditions noted are these: human.
A short description of data set [2]: Highest frequency of acute liver toxicity observed during clinical trials, expressed as a percentage. [column '% AIGUE' in source]. The conditions noted are these: human.
Data set [3] can be described thus: Presence of at least one case with successful reintroduction. [column 'REINT' in source]. The settings on record: human.
A short description of data set [4]: Times to onset, minimal and maximal, observed in the indexed observations. [column 'DELAI' in source]. The conditions noted are these: human.
For data set [5] the following is noted: human, serum.
For data set [6] the following is noted: human, serum. The source holds these as a separate data set.
For data set [7] the following is noted: human.
The conditions of data set [8]: human. This is another data set of the same source.
The conditions of data set [9]: human. The source holds these as a separate data set.
For data set [10] the following is noted: human, serum, 4383 h.
For data set [11] the following is noted: human. This is another data set of the same source.
For data set [12] the following is noted: human. The source holds these as a separate data set.
The conditions of data set [13]: human. The source holds these as a separate data set.
The conditions of data set [14]: human. The source holds these as a separate data set.
For data set [15] the following is noted: human. This is another data set of the same source.
The conditions of data set [16]: human. The source holds these as a separate data set.
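Wherever Hepatotoxicity (association with vascular disease) is given: count of indexed literature references reporting vascular liver injury in humans, e.g. peliosis hepatitis, hepatic veno-occlusive disease or Budd-Chiari syndrome.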
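Wherever Hepatotoxicity (benign tumour) is given: value is a count of indexed literature references citing a benign tumour confirmed by histopathology.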
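Wherever Hepatotoxicity (choleostasis) is given: human cholestatic liver injury, shown by histopathology or by peak ALT or AST elevation over alkaline phosphatase ratio below 2, value counts indexed literature reports.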
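Wherever Hepatotoxicity (chronic liver disease) is given: chronic liver injury confirmed by histopathology or persistently raised serum aminotransferase activity beyond 6 months, value given as the count of indexed literature references.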
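Wherever Hepatotoxicity (cirrhosis) is given: value is a count of indexed literature references reporting cirrhosis confirmed by histopathology.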
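Wherever Hepatotoxicity (cytolytic) is given: human cytolytic liver injury, shown by histopathology or by a ratio above 5 of peak ALT or AST elevation to alkaline phosphatase elevation, value counts indexed references.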
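Wherever Hepatotoxicity (granulomatous hepatitis) is given: value is a count of indexed literature references reporting granulomatous liver disease confirmed by histopathology.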
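Wherever Hepatotoxicity (malignant tumour) is given: malignant tumour confirmed by histopathology, value gives the count of indexed literature references reporting it.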
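Wherever Hepatotoxicity (severe hepatitis) is given: human clinical data: severe hepatitis, meaning potentially life-threatening liver failure or clinically observed cases, the value counts how many indexed literature references report it.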
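Wherever Hepatotoxicity (steatosis) is given: steatosis confirmed by histopathology, value is the count of indexed references.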

As for `COc1ccc2c3c1O[C@H]1[C@@H](O)C=C[C@H]4[C@@H](C2)N(C)CC[C@@]341` [CODEINE], the “Hepatotoxicity (moderate)” value in [1] (Liver) was found to be 0%; in data set [5], 2. Moreover, the figures for the “Hepatotoxicity (acute)” value in data set [2] (Liver) and in [6] were 0% and 3, respectively. Also, the “Hepatotoxicity (successful reintroduction)” value in data set [3] is “yes”. The “Hepatotoxicity (time to onset)” value in [4] was under 1 hour - 1.5 hours. Further, in data set [7] (Liver), the “Hepatotoxicity (cytolytic)” value came out at 2. The “Hepatotoxicity (choleostasis)” value in [8] (Liver) turned out to be 0. Also, the “Hepatotoxicity (severe hepatitis)” value in data set [9] (Liver) is reported as 0. For the same compound, the “Hepatotoxicity (chronic liver disease)” value in data set [10] was found to be 0. Further, in data set [11], the “Hepatotoxicity (cirrhosis)” value was found to be 0. Further, in [12] (Liver), the “Hepatotoxicity (granulomatous hepatitis)” value is on record as 1. In data set [13], the “Hepatotoxicity (association with vascular disease)” value was found to be 0. In addition, the “Hepatotoxicity (steatosis)” value in data set [14] came to 0. Further, in [15], the “Hepatotoxicity (malignant tumour)” value stood at 0. In addition, the “Hepatotoxicity (benign tumour)” value in data set [16] turned out to be 0.

For the compound `CCN(CC)CCCN(c1ccccc1)C1Cc2ccccc2C1` [APRINDINE], the “Hepatotoxicity (moderate)” value in data set [1] stood at 1%; in data set [5], 1. Also, the figures for the “Hepatotoxicity (acute)” value in data set [2] and in [6] were 0.1% and 9, respectively. The “Hepatotoxicity (successful reintroduction)” value in data set [3] was “yes”. For the same compound, the “Hepatotoxicity (time to onset)” value in data set [4] worked out at 5 days - 2 months. Moreover, the “Hepatotoxicity (cytolytic)” value in [7] was found to be 4. Also, in [8], the “Hepatotoxicity (choleostasis)” value is listed as 7. In addition, the “Hepatotoxicity (severe hepatitis)” value in data set [9] turned out to be 0. In data set [10], the “Hepatotoxicity (chronic liver disease)” value is 0. Further, in data set [11], the “Hepatotoxicity (cirrhosis)” value is recorded as 0. The “Hepatotoxicity (granulomatous hepatitis)” value in data set [12] came out at 1. In addition, the “Hepatotoxicity (association with vascular disease)” value in data set [13] was 0. Also, the “Hepatotoxicity (steatosis)” value in data set [14] was found to be 0. Further, the “Hepatotoxicity (malignant tumour)” value in data set [15] is given as 0. Moreover, the “Hepatotoxicity (benign tumour)” value in [16] was 0.

For the compound `CCCCC(CC)COC(=O)CC(C(=O)OCC(CC)CCCC)S(=O)(=O)O` (centres undefined) [DOCUSATE], the entries for the “Hepatotoxicity (moderate)” value in [1] and in data set [5] were 0% and 1, respectively. Besides, the “Hepatotoxicity (acute)” value in data set [2] worked out at 0%; in data set [6] it was 0. The “Hepatotoxicity (successful reintroduction)” value in [3] was “yes”. Besides, the “Hepatotoxicity (time to onset)” value in data set [4] is 2 days - 1 year. For the same compound, the “Hepatotoxicity (cytolytic)” value in [7] is on record as 0. Moreover, the “Hepatotoxicity (choleostasis)” value in data set [8] stood at 0. Besides, the “Hepatotoxicity (severe hepatitis)” value in [9] came to 0. For the same compound, the “Hepatotoxicity (chronic liver disease)” value in [10] was found to be 1. In [11], the “Hepatotoxicity (cirrhosis)” value is reported as 0. In addition, the “Hepatotoxicity (granulomatous hepatitis)” value in data set [12] is reported as 0. Also, in data set [13], the “Hepatotoxicity (association with vascular disease)” value was found to be 0. In data set [14], the “Hepatotoxicity (steatosis)” value was 0. In addition, in [15], the “Hepatotoxicity (malignant tumour)” value is on record as 0. In addition, the “Hepatotoxicity (benign tumour)” value in [16] worked out at 0.

For ENOXAPARIN, the “Hepatotoxicity (moderate)” value turned out to be 36% in data set [1] and 8 in [5]. In addition, the “Hepatotoxicity (acute)” value is 0% in data set [2] and 0 in [6]. Further, the “Hepatotoxicity (successful reintroduction)” value in data set [3] was “yes”. Further, the “Hepatotoxicity (time to onset)” value in data set [4] is 12 hours - 2 weeks. For the same compound, in data set [7], the “Hepatotoxicity (cytolytic)” value was 0. Further, the “Hepatotoxicity (choleostasis)” value in data set [8] came out at 0. Further, the “Hepatotoxicity (severe hepatitis)” value in data set [9] is reported as 0. In addition, in data set [10], the “Hepatotoxicity (chronic liver disease)” value came out at 0. Also, the “Hepatotoxicity (cirrhosis)” value in data set [11] is on record as 0. Also, the “Hepatotoxicity (granulomatous hepatitis)” value in data set [12] was found to be 0. The “Hepatotoxicity (association with vascular disease)” value in [13] turned out to be 0. In addition, in data set [14], the “Hepatotoxicity (steatosis)” value was 0. Besides, in [15], the “Hepatotoxicity (malignant tumour)” value is on record as 0. Also, the “Hepatotoxicity (benign tumour)” value in data set [16] is on record as 0.
